In ChEMBL document CHEMBL1125716, “1,2,4-Triazolo[4,3-a]pyrazine derivatives with human renin inhibitory activity. 3.1 Synthesis and biological properties of aminodeoxystatine and difluorostatone derivatives” (J Med Chem, 1991) one finds IC50 data, which are given here for eleven compounds.

By IC50 is commonly meant the concentration that gives 50% inhibition. The low end stands for greater potency in that assay, the high end for weaker potency in that assay.

The assay deals with T1, Renin (Homo sapiens, UniProt P00797).
T1 sequence (P00797 whole entry): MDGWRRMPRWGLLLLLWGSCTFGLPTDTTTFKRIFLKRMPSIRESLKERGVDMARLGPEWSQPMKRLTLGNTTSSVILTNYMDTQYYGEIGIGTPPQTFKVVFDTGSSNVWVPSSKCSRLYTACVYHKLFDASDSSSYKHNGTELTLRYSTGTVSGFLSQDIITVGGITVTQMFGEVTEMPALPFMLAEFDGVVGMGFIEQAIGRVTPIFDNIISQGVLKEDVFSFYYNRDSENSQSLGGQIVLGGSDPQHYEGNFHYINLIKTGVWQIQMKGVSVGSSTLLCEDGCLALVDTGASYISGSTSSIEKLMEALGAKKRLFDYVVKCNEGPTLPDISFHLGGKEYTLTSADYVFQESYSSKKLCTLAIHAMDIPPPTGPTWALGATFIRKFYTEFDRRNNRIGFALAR
The assay is described as follows: Inhibition of human renin.

Take `CCCc1nc(-c2cccnc2)cn2c(CC(=O)NC(CC3CCCCC3)C(=O)C(F)(F)C(=O)NCC)nnc12` (stereo unspecified): the IC50 stood at 1.4 nM.
On to `CC(C)Cc1nc(-c2ccccc2)cn2c(C(Cc3cccnc3)C(=O)NC(CC(C)CC3CCCCC3)C(O)CC(=O)NC(CC(C)C)C(=O)NCc3cccc(CN)c3)nnc12` (stereo unspecified), for which the IC50 came to 1.7 nM.
On to `CCCc1nc(-c2cccnc2)cn2c(C(Cc3cccnc3)C(=O)NC(CC3CCCCC3)C(=O)C(F)(F)C(=O)NCCC(C)C)nnc12` (stereo unspecified), for which the midpoint of inhibition, the IC50, lay at 1.8 nM.
`CC(C)Cc1nc(-c2ccccc2)cn2c([C@@H](Cc3cccnc3)C(=O)N[C@H](CC3CCCCC3)C(N)CC(=O)NC(CC(C)C)C(=O)NCc3ccccn3)nnc12` (stereo in doubt; 13c) had an IC50 of 6.1 nM.
As for `CC(C)Cc1nc(-c2ccccc2)cn2c([C@H](Cc3cccnc3)C(=O)N[C@@H](CC3CCCCC3)C(N)CC(=O)NC(CC(C)C)C(=O)NCc3ccccn3)nnc12` (stereo in doubt; 13a), the figure is 3.9 nM; as for `CC(C)Cc1nc(-c2ccccc2)cn2c(CC(=O)NC(CC3CCCCC3)C(=O)C(F)(F)C(=O)NC(CC(C)C)C(=O)NCc3ccccn3)nnc12` (stereo unspecified), 1.9 nM; as for `CCCc1nc(-c2cccnc2)cn2c(CC(=O)NC(CC3CCCCC3)C(=O)C(F)(F)C(=O)NCC(C)CC)nnc12` (stereo unspecified), 1.7 nM.
For `CC(C)Cc1nc(-c2ccccc2)cn2c([C@@H](Cc3cccnc3)C(=O)N[C@H](CC3CCCCC3)C(N)CC(=O)NC(CC(C)C)C(=O)NCc3ccccn3)nnc12` (stereo in doubt; 13d) the value was 120 nM.
Regarding `CCCc1nc(-c2cccnc2)cn2c(CC(=O)NC(CC3CCCCC3)C(=O)C(F)(F)C(=O)NCCC(C)C)nnc12` (stereo unspecified), the IC50 was found to be 1.6 nM.
For `CC(C)CCNC(=O)C(F)(F)C(=O)C(CC1CCCCC1)NC(=O)Cc1nnc2c(CC(C)C)nc(-c3ccccc3)cn12` (stereo unspecified) the value was 38 nM; for `CC(C)Cc1nc(-c2ccccc2)cn2c([C@H](Cc3cccnc3)C(=O)N[C@@H](CC3CCCCC3)C(N)CC(=O)NC(CC(C)C)C(=O)NCc3ccccn3)nnc12` (stereo in doubt; 13b), 100 nM.
